Experimental data as given in patent US20250163037A1, “SUBSTITUTED ISOXAZOLINE DERIVATIVES” (BASF SE, priority 2022, published 2025).
Like-named read-outs stand apart in the source and are kept apart here.

What was measured:
Assay type in all cases: in vivo
[1] = test system: Orchid Thrips (Dichromothrips corbetti); assay: B.6 Orchid Thrips, floral-immersion technique; details: for B.6, 10 ppm: comparative experiment, test B.6 (percent mortality), unit not given; for mortality at 300 ppm: read-out: mortality in comparison with untreated controls
Protocol: Dichromothrips corbetti adults used for bioassay were obtained from a colony maintained continuously under laboratory conditions. For testing purposes, the test compound was diluted in a 1:1 mixture of acetone:water (vol:vol), plus Kinetic at a rate of 0.01% v/v.
Thrips potency of each compound was evaluated by using a floral-immersion technique. Each orchid petal was dipped into treatment solution and allowed to dry in Petri dishes. Treated petals were placed into individual re-sealable plastic along with about 20 adult thrips. All test arenas were held under dark condition and a temperature of about 28° C. for duration of the assay. The percent mortality was recorded 72 hours after treatment.

[2] = test system: Green Peach Aphid (Myzus persicae); assay: B.2 Green Peach Aphid (mixed life stages), systemic artificial diet under membrane; details: 72 h, read-out: mortality in comparison with untreated controls
From the text: For evaluating control of Green Peach Aphid through systemic means the test unit consisted of 96-well-microtiter plates containing liquid artificial diet under an artificial membrane. The compounds were formulated using a solution containing 75% v/v water and 25% v/v DMSO. Different concentrations of formulated compounds were pipetted into the aphid diet, using a custom-built pipette, at two replications. After application, 5-8 adult aphids were placed on the artificial membrane inside the microtiter plate wells. The aphids were then allowed to suck on the treated aphid diet and incubated at about 23±1° C. and about 50±5% relative humidity for 3 days. Aphid mortality and fecundity was then visually assessed.

[3] = test system: Boll Weevil (Anthonomus grandis); assay: B.1 Boll weevil, microtiter plate with insect diet and eggs; details: 120 h, egg and larval mortality after 5 days, read-out: mortality in comparison with untreated controls
Protocol: For evaluating control of boll weevil, the test unit consisted of 96-well-microtiter plates containing an insect diet and 5-10 A. grandis eggs.
The compounds were formulated using a solution containing 75% v/v water and 25% v/v DMSO. Different concentrations of formulated compounds were sprayed onto the insect diet at 5 μl, using a custom-built micro atomizer, at two replications.
After application, microtiter plates were incubated at about 25±1° C. and about 75±5% relative humidity for 5 days. Egg and larval mortality were then visually assessed.

[4] = test system: Yellow Fever Mosquito (Aedes aegypti); assay: whole plant or invertebrate; details: 48 h, larval mortality after 2 days, read-out: mortality in comparison with untreated controls
Protocol: For evaluating control of Yellow Fever Mosquito, the test unit consisted of 96-well-microtiter plates containing 200 μl of tap water per well and 5-15 freshly hatched A. aegypti larvae. The active compounds were formulated using a solution containing 75% (v/v) water and 25% (v/v) DMSO. Different concentrations of formulated compounds or mixtures were sprayed onto the insect diet at 2.5 μl, using a custom-built micro atomizer, at two replications.
After application, microtiter plates were incubated at 28±1° C., 80±5% RH for 2 days. Larval mortality was then visually assessed.

[5] = test system: Tobacco Budworm (Heliothis virescens); assay: B.3 Tobacco Budworm, microtiter plate with insect diet and eggs; details: 120 h, egg and larval mortality after 5 days, read-out: mortality in comparison with untreated controls
Protocol: For evaluating control of Tobacco Budworm, the test unit consisted of 96-well-microtiter plates containing an insect diet and 15-25 H. virescens eggs. The compounds were formulated using a solution containing 75% v/v water and 25% v/v DMSO. Different concentrations of formulated compounds were sprayed onto the insect diet at 10 μl, using a custom-built micro atomizer, at two replications. After application, microtiter plates were incubated at about 28±1° C. and about 80±5% relative humidity for 5 days. Egg and larval mortality was then visually assessed.

[6] = test system: Southern Armyworm (Spodoptera eridania); assay: B.7 Southern Armyworm, 2nd instar larvae, sprayed lima bean plants; details: 96 h, 4 days after treatment, read-out: mortality in comparison with untreated controls
Protocol: The active compounds were formulated by a Tecan liquid handler in 100% cyclohexanone as a 10′000 ppm solution supplied in tubes. The 10′000 ppm solution was serially diluted in 100% cyclohexanone to make interim solutions. These served as stock solutions for which final dilutions were made by the Tecan in 50% acetone:50% water (v/v) into 10 or 20 ml glass vials. A nonionic surfactant (Kinetic®) was included in the solution at a volume of 0.01% (v/v). The vials were then inserted into an automated electrostatic sprayer equipped with an atomizing nozzle for application to plants/insects. Lima bean plants (variety Sieva) were grown 2 plants to a pot and selected for treatment at the 1st true leaf stage. Test solutions were sprayed onto the foliage by an automated electrostatic plant sprayer equipped with an atomizing spray nozzle. The plants were dried in the sprayer fume hood and then removed from the sprayer. Each pot was placed into perforated plastic bags with a zip closure. Ten to 11 armyworm larvae were placed into the bag and the bags zipped closed. Test plants were maintained in a growth room at about 25° C. and about 20-40% relative humidity for 4 days, avoiding direct exposure to fluorescent light (14:10 light:dark photo-period) to prevent trapping of heat inside the bags. Mortality and reduced feeding were assessed 4 days after treatment, compared to untreated control plants.

[7] = test system: Diamond Back Moth (Plutella xylostella); assay: B.5 Diamond Back Moth, cabbage leaf disc dip; details: for B.5, 10 ppm: comparative experiment, test B.5 (mortality), unit not given; for mortality at 300 ppm: Plutella xylostella, foliar, 3rd instar larvae, 72 hours after treatment, read-out: mortality in comparison with untreated controls
Protocol: The active compound was dissolved at the desired concentration in a mixture of 1:1 (vol:vol) distilled water:acetone. Surfactant (Kinetic) was added at a rate of 0.01% (vol/vol). The test solution was prepared at the day of use. Cabbage leaf discs (60 mm in diameter) were dipped in test solution and air-dried. Treated leaves were placed in petri dishes lined with moistened filter paper and inoculated with ten 3rd instar larvae. Mortality was recorded 72 hours after treatment. Feeding damages were also recorded using a scale of 0-100%.

[8] = test system: Silverleaf Whitefly (Bemisia argentifoli); assay: B.8 Silverleaf Whitefly (adults), sprayed cotton plants; details: 72 h, 3 days after treatment, read-out: mortality in comparison with untreated controls
Protocol: The active compounds were formulated by a Tecan liquid handler in 100% cyclohexanone as a 10,000-ppm solution supplied in tubes. The 10,000-ppm solution was serially diluted in 100% cyclohexanone to make interim solutions. These served as stock solutions for which final dilutions were made by the Tecan in 50% acetone:50% water (v/v) into 5 or 10 ml glass vials. A nonionic surfactant (Kinetic®) was included in the solution at a volume of 0.01% (v/v). The vials were then inserted into an automated electrostatic sprayer equipped with an atomizing nozzle for application to plants/insects. Cotton plants at the cotyledon stage (one plant per pot) were sprayed by an automated electrostatic plant sprayer equipped with an atomizing spray nozzle. The plants were dried in the sprayer fume hood and then removed from the sprayer. Each pot was placed into a plastic cup and about 10 to 12 whitefly adults (approximately 3-5 days old) were introduced. The insects were collected using an aspirator and a nontoxic Tygon® tubing connected to a barrier pipette tip. The tip, containing the collected insects, was then gently inserted into the soil containing the treated plant, allowing insects to crawl out of the tip to reach the foliage for feeding. Cups were covered with a reusable screened lid. […] Mortality was assessed 3 days after treatment, compared to untreated control 5 plants.

[9] = 300 ppm, adult thrips, 72 hours after treatment
[10] = 2500 ppm, aphid mortality after 3 days

N#Cc1ccc(NC2=NOC(c3cc(Cl)cc(Cl)c3)(C(F)(F)F)C2)cc1-n1cncn1 (stereo not drawn) [I-1]
B.6, 10 ppm [1]: 100 | mortality at 300 ppm [1, 9]: ≥ 75% | mortality at 2500 ppm [2, 10]: ≥ 75% | mortality at 2500 ppm [3]: ≥ 75% | mortality at 2500 ppm [4]: ≥ 75% | mortality at 2500 ppm [5]: ≥ 75% | mortality at 300 ppm [6]: ≥ 75% | B.5, 10 ppm [7]: 100 | mortality at 300 ppm [7]: ≥ 75%

N#Cc1ccc(NC2=NOC(c3cc(Cl)c(F)c(Cl)c3)(C(F)(F)F)C2)cc1-n1cncn1 (stereo not drawn) [I-4, 4-[[5-(3,5-dichloro-4-fluoro-phenyl)-5-(trifluoromethyl)-4H-isoxazol-3-yl]amino]-2-(1,2,4-triazol-1-yl)benzonitrile]
mortality at 300 ppm [1, 9]: ≥ 75%

Fc1c(Cl)cc(C2(C(F)(F)F)CC(Nc3ccc(Cl)c(-n4cc(C(F)(F)F)cn4)c3)=NO2)cc1Cl (stereo not drawn) [I-14, N-[4-chloro-3-[4-(trifluoromethyl)pyrazol-1-yl]phenyl]-5-(3,5-dichloro-4-fluoro-phenyl)-5-(trifluoromethyl)-4H-isoxazol-3-amine]
mortality at 300 ppm [1, 9]: ≥ 75% | mortality at 300 ppm [8]: ≥ 75%

Fc1c(Cl)cc(C2(C(F)(F)F)CC(Nc3ccc(Cl)c(-n4cnc(C(F)(F)F)c4)c3)=NO2)cc1Cl (stereo not drawn) [I-16, N-[4-chloro-3-[4-(trifluoromethyl)imidazol-1-yl]phenyl]-5-(3,5-dichloro4-fluoro-phenyl)-5-(trifluoromethyl)-4H-isoxazol-3-amine]
mortality at 300 ppm [1, 9]: ≥ 75%

O=C(NCC(F)(F)F)c1cnn(-c2cc(NC3=NOC(c4cc(Cl)c(F)c(Cl)c4)(C(F)(F)F)C3)ccc2Cl)c1 (stereo not drawn) [I-18, 1-[2-chloro-5-[[5-(3,5-dichloro-4-fluoro-phenyl)-5-(trifluoromethyl)-4H-isoxazol-3-yl]amino]phenyl]-N-(2,2,2-trifluoroethyl)pyrazole-4-carboxamide]
mortality at 300 ppm [1, 9]: ≥ 75%

CCN(C1=NOC(c2cc(Cl)c(F)c(Cl)c2)(C(F)(F)F)C1)c1ccc(C#N)c(-n2cncn2)c1 (stereo not drawn) [I-20, 4-[[5-(3,5-dichloro-4-fluoro-phenyl)-5-(trifluoromethyl)-4H-isoxazol-3-yl]-ethyl-amino]-2-(1,2,4-triazol-1-yl)benzonitrile]
mortality at 300 ppm [1, 9]: ≥ 75%

COCN(C1=NOC(c2cc(Cl)c(F)c(Cl)c2)(C(F)(F)F)C1)c1ccc(Cl)c(-n2cc(C(F)(F)F)cn2)c1 (stereo not drawn) [I-23, N-[4-chloro-3-[4-(trifluoromethyl)pyrazol-1-yl]phenyl]-5-(3,5-dichloro-4-fluoro-phenyl)-N-(methoxymethyl)-5-(trifluoromethyl)-4H-isoxazol-3-amine]
mortality at 300 ppm [1, 9]: ≥ 75% | mortality at 300 ppm [6]: ≥ 75% | mortality at 300 ppm [7]: ≥ 75%

CCOC(=O)N(C1=NOC(c2cc(Cl)c(F)c(Cl)c2)(C(F)(F)F)C1)c1ccc(Cl)c(-n2cnc(C(F)(F)F)c2)c1 (stereo not drawn) [I-26, ethyl N-[4-chloro-3-[4-(trifluoromethyl)imidazol-1-yl]phenyl]-N-[5-(3,5-dichloro-4-fluoro-phenyl)-5-(trifluoromethyl)-4H-isoxazol-3-yl]carbamate]
mortality at 300 ppm ([1]; Thrips, 72 h): ≥ 75% | mortality at 2500 ppm [2]: ≥ 75%

Fc1c(Cl)cc(C2(C(F)(F)F)CC(Oc3ccc(Cl)c(-n4cncn4)c3)=NO2)cc1Cl (stereo not drawn) [I-27, 3-[4-chloro-3-(1,2,4-triazol-1-yl)phenoxy]-5-(3,5-dichloro-4-fluoro-phenyl)-5-(trifluoromethyl)-4H-isoxazole]
mortality at 300 ppm [1, 9]: ≥ 75% | mortality at 2500 ppm [2, 10]: ≥ 75% | mortality at 2500 ppm [3]: ≥ 75% | mortality at 2500 ppm [4]: ≥ 75% | mortality at 2500 ppm [5]: ≥ 75% | mortality at 300 ppm [6]: ≥ 75%

N#Cc1ccc(C2=NOC(c3cc(Cl)cc(Cl)c3)(C(F)(F)F)C2)cc1-n1cncn1 [WO2011/073444 Table 3937, No. D-539, reference compound]
B.6, 10 ppm [1]: 0 | B.5, 10 ppm [7]: 0

N#Cc1cnn(-c2cccc(C3=NOC(c4cc(Cl)cc(Cl)c4)(C(F)(F)F)C3)c2)c1 (stereo not drawn) [WO2011/073444 Table C.1, No. I-4, reference compound]
B.6, 10 ppm [1]: 0 | B.5, 10 ppm [7]: 0
